# Values quoted from earlier work, collected in patent publication US8153661B2, “Controlled delivery system” (Durect Corporation, priority 2004, dated 2012).
structure (smiles),measurement,value
CCCCN1CCCCC1C(=O)Nc1c(C)cccc1C (stereo not shown) [bupivacaine],published estimated toxic plasma concentration ranges,1 to 4 µg/mL
